Test results taken from ChEMBL document CHEMBL1201862, “PubChem BioAssay data set” (2004).
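In this assay, cells in 96-well plates receive the compound at five concentrations for 48 hours. Endpoints are linearly interpolated between the surrounding concentrations. The concentration for 50% growth inhibition is given as GI50.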 Calls of active or inactive are those of the source. Cut-off read from the data, not from the text of the source: active = GI50 up to about 1.1 µM and inactive = higher.

How the values were obtained:
Experiment in all cases: DTP human tumour cell line panel, 48 h
SNB-19 = tested on: SNB-19
OVCAR-8 = tested on: OVCAR-8
A498 = tested on: A498
OVCAR-4 = tested on: OVCAR-4
LOX IMVI = tested on: LOX IMVI
SK-MEL-5 = tested on: SK-MEL-5
HOP-92 = tested on: HOP-92
SN12C = tested on: SN12C
HCC 2998 = tested on: HCC 2998
OVCAR-5 = tested on: OVCAR-5
SK-OV-3 = tested on: SK-OV-3
KM12 = tested on: KM12
SNB-75 = tested on: SNB-75
COLO 205 = tested on: COLO 205
DMS-273 = tested on: DMS-273
HL-60 = tested on: HL-60
NCI-H226 = tested on: NCI-H226
CAKI-1 = tested on: CAKI-1

| Structure (SMILES) | GI50 (SNB-19) | GI50 (OVCAR-8) | GI50 (A498) | GI50 (OVCAR-4) | GI50 (LOX IMVI) | GI50 (SK-MEL-5) | GI50 (HOP-92) | GI50 (SN12C) | GI50 (HCC 2998) | GI50 (OVCAR-5) | GI50 (SK-OV-3) | GI50 (KM12) | GI50 (SNB-75) | GI50 (COLO 205) | GI50 (DMS-273) | GI50 (HL-60) | GI50 (NCI-H226) | GI50 (CAKI-1) |
| --- | --- | --- | --- | --- | --- | --- | --- | --- | --- | --- | --- | --- | --- | --- | --- | --- | --- | --- |
| O=C(/C=C\c1ccc(/C=C/C(=O)Nc2cccc(C3=NCCCN3)c2)cc1)Nc1cccc(C2=NCCCN2)c1 | > 100 µM (inactive) | > 100 µM (inactive) | > 74.3 µM (inactive) | > 100 µM (inactive) | > 100 µM (inactive) | 30.8 µM (inactive) | > 100 µM (inactive) | > 100 µM (inactive) | 69.2 µM (inactive) | > 100 µM (inactive) | > 100 µM (inactive) | > 100 µM (inactive) | > 69.3 µM (inactive) | 4.06 µM (inactive) | > 100 µM (inactive) | > 100 µM (inactive) |  |  |
| COC(=O)CCC(=O)Nc1ccc(Cl)cc1C | > 100 µM (inactive) | > 100 µM (inactive) |  | > 75.7 µM (inactive) | > 25.8 µM (inactive) | > 92.9 µM (inactive) | > 60.8 µM (inactive) | > 23.2 µM (inactive) | > 100 µM (inactive) | > 100 µM (inactive) | > 100 µM (inactive) | 15.5 µM (inactive) | > 74.5 µM (inactive) | > 64.9 µM (inactive) | > 100 µM (inactive) | 0.399 µM (active) | > 52.6 µM (inactive) | 23.4 µM (inactive) |
| O=C1CC2CCCCC2=C1O (stereo not drawn) | > 100 µM (inactive) | > 100 µM (inactive) | > 100 µM (inactive) | > 100 µM (inactive) | > 100 µM (inactive) | > 100 µM (inactive) |  | > 100 µM (inactive) | > 100 µM (inactive) | > 100 µM (inactive) | > 100 µM (inactive) | > 100 µM (inactive) | > 100 µM (inactive) | > 100 µM (inactive) | > 100 µM (inactive) | > 100 µM (inactive) |  | > 100 µM (inactive) |
| Cc1ccc(S(=O)(=O)OC2CSSCC2OS(=O)(=O)c2ccc(C)cc2)cc1 (stereo not drawn) | 17.3 µM (inactive) | 13.3 µM (inactive) |  | 11.2 µM (inactive) | 13.8 µM (inactive) | 15.7 µM (inactive) | 11.4 µM (inactive) | 11.3 µM (inactive) | 20.9 µM (inactive) | 23.4 µM (inactive) | 20.5 µM (inactive) | 14.1 µM (inactive) | 12.8 µM (inactive) | 13.7 µM (inactive) | 10.1 µM (inactive) | 2.62 µM (inactive) | 17.9 µM (inactive) | 12.5 µM (inactive) |
| CC(=O)Nc1ccc(-c2nnc(SCC(=O)Nc3cccc([N+](=O)[O-])c3)o2)cc1 |  | 16.2 µM (inactive) |  | 11.6 µM (inactive) | 8.77 µM (inactive) | 14 µM (inactive) | 17.1 µM (inactive) | 16.1 µM (inactive) |  | 23.9 µM (inactive) | 11.1 µM (inactive) | 17.3 µM (inactive) | 17.8 µM (inactive) | 19 µM (inactive) | 10.9 µM (inactive) | 10.6 µM (inactive) | 10.8 µM (inactive) | 13.7 µM (inactive) |
| OC(c1ccccc1)C1CC2C=CC1C2 (stereo not drawn) | > 100 µM (inactive) | > 100 µM (inactive) | > 100 µM (inactive) | > 100 µM (inactive) | > 100 µM (inactive) | > 100 µM (inactive) | > 100 µM (inactive) | > 100 µM (inactive) |  | > 100 µM (inactive) | > 100 µM (inactive) | > 100 µM (inactive) | > 100 µM (inactive) | > 100 µM (inactive) | > 100 µM (inactive) | > 100 µM (inactive) |  | > 100 µM (inactive) |
| C/C=C/CC(C)[C@@H](O)[C@H](NC)C(=O)O (stereo partly drawn) | > 100 µM (inactive) | > 100 µM (inactive) |  | > 100 µM (inactive) | > 100 µM (inactive) | > 100 µM (inactive) | > 100 µM (inactive) | > 100 µM (inactive) | > 100 µM (inactive) | > 100 µM (inactive) | > 100 µM (inactive) | > 100 µM (inactive) | > 100 µM (inactive) | > 100 µM (inactive) | > 100 µM (inactive) | > 100 µM (inactive) |  | > 100 µM (inactive) |
